Experimental data from patent US10464890B2, “PGAM1 inhibitors and methods related thereto” (Emory University, priority 2011, dated 2019).

Tested on: diverse human cancer and leukemia cells
Experiment: Cell proliferation of diverse cancer and leukemia cells
Type: cell-based
Conditions: diverse human cancer and leukemia cells incl. H1299, KG1a, 212LN; 72h
Procedure: For leukemia cell proliferation assay, 10×10^4 cells were seeded in non-tissue culture coated 6-well plate and incubated at 37° C. for indicated times. Cell numbers were counted by trypan blue exclusion under a microscope (×40) at indicated times and the percentage of cell proliferation was determined by comparing PGAM1 knockdown cells to pLKO.1 vector expressing cells. […] Cell viability was determined by counting drug-treated cells compared to DMSO-treated control cells with trypan blue exclusion under a microscope (×40) and by using CellTiter96Aqueous One solution proliferation kit (Promega). For adherent cell proliferation assay such as H1299 and MDA-MB231 cells, 5×10^4 cells were seeded in 6-well plate 24 h before the assay starts and were cultured at 37° C. 24 h after seeding, cells were treated with 5 μM Methyl-2PG and incubated at 37° C. for indicated times. Cell proliferation was determined by the increase in cell number indicated times after the treatment starts compared to that at the treatment starts for each cell line (T=0). Cell numbers were counted by trypan blue exclusion under a microscope (×40). […] Cell viability was determined by counting drug-treated cells compared to DMSO-treated control cells with trypan blue exclusion under a microscope (×40). […] Cell viability was determined by using CellTiter96Aqueous One solution proliferation kit (Promega).

Question: `O=C1c2ccccc2C(=O)c2c1cc(S(=O)(=O)Nc1ccc(C(F)(F)F)cc1)c(O)c2O` [PGMI-004A, N-(4-trifluoromethyl)-penyl-3,4-dihydroxy-9,10-dioxo-2-anthracenesulfonamide] was tested. Which cell proliferation did it give?
Answer: decreased cell proliferation
